This is an account of results in patent publication US9944641B2, “Isoquinolinone derivatives useful in the treatment of cancer” (PIERRE FABRE MEDICAMENT, priority 2014, dated 2018).

Some results are limits rather than exact numbers.

One assay has as its target T1, JAK3 (Homo sapiens, UniProt P52333).
T1 construct: purchased Life Technologies PV3855
T1 sequence (P52333 1-1124): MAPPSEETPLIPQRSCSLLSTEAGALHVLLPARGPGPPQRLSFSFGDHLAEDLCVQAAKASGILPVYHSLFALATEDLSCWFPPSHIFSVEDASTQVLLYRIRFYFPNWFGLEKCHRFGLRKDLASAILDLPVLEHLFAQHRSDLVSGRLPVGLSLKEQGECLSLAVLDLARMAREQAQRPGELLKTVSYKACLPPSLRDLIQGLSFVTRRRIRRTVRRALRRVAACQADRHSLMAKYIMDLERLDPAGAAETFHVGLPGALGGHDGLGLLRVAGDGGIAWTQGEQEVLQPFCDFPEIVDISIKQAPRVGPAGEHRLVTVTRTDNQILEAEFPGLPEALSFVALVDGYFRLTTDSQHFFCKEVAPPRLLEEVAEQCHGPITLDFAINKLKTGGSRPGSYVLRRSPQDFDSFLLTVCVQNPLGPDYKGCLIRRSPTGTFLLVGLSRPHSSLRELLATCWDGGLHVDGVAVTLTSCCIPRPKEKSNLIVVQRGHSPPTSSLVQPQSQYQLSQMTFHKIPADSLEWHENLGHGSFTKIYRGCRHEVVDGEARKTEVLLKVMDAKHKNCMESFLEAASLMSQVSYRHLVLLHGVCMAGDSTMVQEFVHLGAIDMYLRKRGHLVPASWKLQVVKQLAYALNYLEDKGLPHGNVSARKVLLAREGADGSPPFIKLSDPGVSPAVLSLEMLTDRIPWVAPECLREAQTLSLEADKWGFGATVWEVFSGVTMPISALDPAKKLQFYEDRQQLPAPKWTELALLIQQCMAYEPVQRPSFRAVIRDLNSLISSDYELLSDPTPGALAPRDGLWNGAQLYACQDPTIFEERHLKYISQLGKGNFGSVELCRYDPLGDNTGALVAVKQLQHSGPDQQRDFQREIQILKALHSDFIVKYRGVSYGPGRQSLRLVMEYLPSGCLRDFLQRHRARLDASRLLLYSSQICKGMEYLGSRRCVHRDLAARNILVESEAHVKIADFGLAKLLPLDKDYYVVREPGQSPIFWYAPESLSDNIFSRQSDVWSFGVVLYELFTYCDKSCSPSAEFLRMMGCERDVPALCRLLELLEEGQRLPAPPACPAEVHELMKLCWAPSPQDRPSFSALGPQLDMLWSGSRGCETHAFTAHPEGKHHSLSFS
Kind of assay: Lanthascreen TR-FRET enzymatic assay, JAK3. The assay is classed as binding. As to conditions: recombinant JAK3, 1 hour at 25° C., 1% DMSO; read-out: Enzymology (IC50) JAK3. As for the experimental part: (§1) Recombinant FLT3 (#PV3182), JAK2 (#PV4210) and JAK3 (#PV3855) enzymes were purchased from Life Technologies. FLT3-ITD (#0778-0000-1) and FLT3^D835Y (#14-610) were respectively purchased from Proquinase and Merck Millipore.
(§2) The assays were conducted in 384-well plates based on Life Technologies Lanthascreen® TR-FRET methodologies.
JAK3 assays: 15 nM of […], 3 nM of the 236 kinase tracker (Life Technologies #PV5592) and 6 nM of the Europium-tagged anti-GST Lanthascreen® antibody are mixed into 15 μL total volume reaction mixture.
(§3) IC50s were determined from a 8-point dose-response curve spanning a >1000 fold concentration range using a 10 mM compound solution stock into pure DMSO (Sigma #D8418). The overall DMSO concentrations of tested solutions were 1%.
(§4) IC50s were generated with the software Prism (Graphpad).

The next assay has as its target T2, JAK2 (Homo sapiens, UniProt O60674).
T2 construct: purchased Life Technologies PV4210
Description: Lanthascreen TR-FRET enzymatic assay, JAK2. The assay is classed as binding. As to conditions: recombinant JAK2, 1 hour at 25° C., 1% DMSO; read-out: Enzymology (IC50) JAK2. As for the experimental part: as §1, §2
JAK2 assays: 15 nM of JAK2, 150 nM of the 236 kinase tracker (Life Technologies #PV5592) and 6 nM of the Europium-tagged anti-GST Lanthascreen® antibody are mixed into 15 μL total volume reaction mixture.
as §3, §4

Another assay concerns the target T3, FLT3 wt (Homo sapiens, UniProt P36888).
T3 construct: purchased Life Technologies PV3182
T3 sequence (P36888 564-993 limits assumed): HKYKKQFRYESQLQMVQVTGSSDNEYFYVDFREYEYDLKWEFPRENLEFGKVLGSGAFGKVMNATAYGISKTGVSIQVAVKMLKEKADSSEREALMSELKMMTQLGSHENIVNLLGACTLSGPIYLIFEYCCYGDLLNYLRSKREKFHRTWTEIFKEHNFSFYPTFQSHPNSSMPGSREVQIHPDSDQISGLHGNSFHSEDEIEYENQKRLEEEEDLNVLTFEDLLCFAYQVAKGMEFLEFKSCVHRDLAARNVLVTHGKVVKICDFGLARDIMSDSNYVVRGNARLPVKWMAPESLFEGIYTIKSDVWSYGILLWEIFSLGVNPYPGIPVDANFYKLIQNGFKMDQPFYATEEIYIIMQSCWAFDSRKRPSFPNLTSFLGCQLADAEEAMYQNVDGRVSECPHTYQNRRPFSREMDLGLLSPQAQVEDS
Kind of assay: Lanthascreen TR-FRET enzymatic assay, FLT3. The assay is classed as binding. As to conditions: recombinant FLT3, 1 hour at 25° C., 1% DMSO; read-out: Enzymology (IC50) FLT3 wt. As for the experimental part: as §1, §2
FLT3 assays: 15 nM of FLT3, 3 nM of the 236 kinase tracker (Life Technologies #PV5592) and 6 nM of the Europium-tagged anti-His Lanthascreen® antibody are mixed into 15 μL total volume reaction mixture.
as §3, §4

For another assay, the system named is MV4-11 cells. Description: Antiproliferative activity assay (ATPLite), MV4-11. The class given is cell-based. As to conditions: Homo sapiens, MV4-11 (AML, FLT3-ITD), 72 h, read-out: Inhibition of proliferation (EC50) MV411. The procedure: (§5) Cell lines MV4-11 and MOLM-13 are grown according to conditions depicted in Table 2 following the provider recommendations.
(§6) Assays are being run into 96-well plates. Cells are passaged at Day 0, seeded at Day 1 and added with increasing quantities of the compounds to evaluate. Plates are incubated for 72 h at 37° C. under a 5% CO2 atmosphere.
(§7) Half-logarithmic dilutions from compounds stock solutions in DMSO (Sigma #D8414) were done in order to obtain 0.1% DMSO solutions.
(§8) Cellular viability is measured at Day 4 with the ATPLite (Perkin Elmer #6016947) kit.

The subject of a further assay is MOLM-13 cells. Description: Antiproliferative activity assay (ATPLite), MOLM-13. The class given is cell-based. As to conditions: Homo sapiens, MOLM-13 (AML, FLT3-ITD), 72 h, read-out: Inhibition of proliferation (EC50) MOLM13. As for the experimental part: as §5, §6, §7, §8

T2 sequence (O60674 whole entry): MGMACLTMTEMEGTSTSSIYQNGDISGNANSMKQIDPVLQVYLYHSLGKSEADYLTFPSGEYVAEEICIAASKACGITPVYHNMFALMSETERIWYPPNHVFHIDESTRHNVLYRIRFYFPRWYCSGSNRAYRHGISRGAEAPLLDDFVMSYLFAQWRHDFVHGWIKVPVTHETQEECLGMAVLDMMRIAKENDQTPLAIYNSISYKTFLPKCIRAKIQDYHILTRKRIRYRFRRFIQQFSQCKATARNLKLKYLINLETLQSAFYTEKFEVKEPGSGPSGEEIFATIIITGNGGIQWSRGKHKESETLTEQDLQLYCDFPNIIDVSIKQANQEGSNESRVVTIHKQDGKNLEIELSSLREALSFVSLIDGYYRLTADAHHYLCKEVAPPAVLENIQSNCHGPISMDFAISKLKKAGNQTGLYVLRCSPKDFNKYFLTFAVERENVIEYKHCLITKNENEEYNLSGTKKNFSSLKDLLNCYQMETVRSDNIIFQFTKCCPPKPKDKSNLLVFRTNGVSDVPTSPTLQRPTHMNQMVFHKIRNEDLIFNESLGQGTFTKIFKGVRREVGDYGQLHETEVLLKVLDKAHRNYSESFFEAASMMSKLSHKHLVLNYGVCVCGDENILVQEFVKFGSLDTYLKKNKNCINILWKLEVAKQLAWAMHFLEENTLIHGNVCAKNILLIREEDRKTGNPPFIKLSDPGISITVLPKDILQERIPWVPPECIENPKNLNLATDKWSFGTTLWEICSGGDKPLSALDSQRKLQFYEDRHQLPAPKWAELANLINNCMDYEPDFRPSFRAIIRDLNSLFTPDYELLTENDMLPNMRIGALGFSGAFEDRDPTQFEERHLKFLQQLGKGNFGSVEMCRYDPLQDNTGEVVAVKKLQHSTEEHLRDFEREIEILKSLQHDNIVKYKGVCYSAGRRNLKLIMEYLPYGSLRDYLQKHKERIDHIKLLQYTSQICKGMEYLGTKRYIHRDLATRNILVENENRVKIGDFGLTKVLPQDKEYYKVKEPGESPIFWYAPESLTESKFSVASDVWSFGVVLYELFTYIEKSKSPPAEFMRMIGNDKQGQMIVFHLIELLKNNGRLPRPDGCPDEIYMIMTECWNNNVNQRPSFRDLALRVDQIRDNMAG

With `Cn1c(=O)c2cc(N)ccc2c2nc(Nc3cccc(N)c3)ncc21` [Compound C2, 8-amino-2-((3-aminophenyl)amino)-5-methylpyrimido[5,4-c]isoquinolin-6(5H)-one], the IC50 at JAK3, at JAK2 and on FLT3 wt was 25 to 100 nM throughout. The EC50 with MV4-11 cells and with MOLM-13 cells was 25 to 100 nM throughout.

Consider `CN1CCN(c2ccc(Nc3ncc4c(n3)c3ccc(N)cc3c(=O)n4C)cc2)CC1` [Compound C4, 8-amino-5-methyl-2-((4-(4-methylpiperazin-1-yl)phenyl)amino)pyrimido[5,4-c]isoquinolin-6(5H)-one], for which the figures for the 50% inhibitory concentration (IC50) at JAK3, at JAK2 and at FLT3 wt were 25 to 100 nM, 100 to 1000 nM and 25 to 100 nM, respectively. The EC50 in the assay with MV4-11 cells and in the assay with MOLM-13 cells was under 25 nM throughout.

Regarding `CN1CCN(c2cccc(Nc3ncc4c(n3)c3ccc(N)cc3c(=O)n4C)c2)CC1` [Compound C6, 8-amino-5-methyl-2-((3-(4-methylpiperazin-1-yl)phenyl)amino)pyrimido[5,4-c]isoquinolin-6(5H)-one], the IC50 at JAK3 lay within 25 to 100 nM; at JAK2, 100 to 1000 nM; on FLT3 wt, 25 to 100 nM. Moreover, the EC50 with MV4-11 cells and with MOLM-13 cells was 25 to 100 nM throughout.

`COc1cc2c(cc1N)c(=O)n(C)c1cnc(Nc3ccc(N4CCN(C)CC4)cc3)nc21` [Compound C10, 8-amino-9-methoxy-5-methyl-2-((4-(4-methylpiperazin-1-yl)phenyl)amino) pyrimido[5,4-c]isoquinolin-6(5H)-one]: the IC50 on JAK3 was 25 to 100 nM; at JAK2, 100 to 1000 nM; on FLT3 wt it was 25 to 100 nM. The EC50 in the assay on MV4-11 cells was under 25 nM; in the assay on MOLM-13 cells, 100 to 1000 nM.

`Cn1c(=O)c2cc(N)ccc2c2nc(Nc3ccc(F)c(N)c3)ncc21` [Compound C22, 8-amino-2-((3-amino-4-fluorophenyl)amino)-5-methylpyrimido[5,4-c]isoquinolin-6(5H)-one]: the concentration for half-maximal inhibition (IC50) on JAK3 was 25 to 100 nM; on JAK2, 100 to 1000 nM; on FLT3 wt, 100 to 1000 nM. The EC50 in the assay with MV4-11 cells and in the assay with MOLM-13 cells was 100 to 1000 nM each time.

For `COc1cc2c(cc1N)c(=O)n(C)c1cnc(Nc3cc(N)cc(F)c3)nc21` [Compound C26, 8-amino-2-((3-amino-5-fluorophenyl)amino)-9-methoxy-5-methylpyrimido [5,4-c]isoquinolin-6(5H)-one], the half-maximal inhibitory concentration (IC50) on JAK3, at JAK2 and at FLT3 wt was 100 to 1000 nM in each case. In addition, the EC50 in the assay on MV4-11 cells and in the assay with MOLM-13 cells was 25 to 100 nM in each case.

`COc1cc2c(cc1N)c(=O)n(C)c1cnc(Nc3ccc(F)c(N)c3)nc21` [Compound C28, 8-amino-2-((3-amino-4-fluorophenyl)amino)-9-methoxy-5-methylpyrimido [5,4-c]isoquinolin-6(5H)-one]: the IC50 on JAK3, at JAK2 and on FLT3 wt was 100 to 1000 nM each time. Also, the figures for the EC50 in the assay on MV4-11 cells and in the assay on MOLM-13 cells were 25 to 100 nM and 100 to 1000 nM, respectively.

As to `Cn1c(=O)c2cc(N)ccc2c2nc(Nc3ccc(OCCN4CCCC4)cc3)ncc21` [Compound C34, 8-amino-5-methyl-2-((4-(2-(pyrrolidin-1-yl)ethoxy)phenyl)amino)pyrimido[5,4-c]isoquinolin-6(5H)-one], the values for the half-maximal inhibitory concentration (IC50) at JAK3, at JAK2 and on FLT3 wt were 100 to 1000 nM, 100 to 1000 nM and 25 to 100 nM, respectively. Further, the EC50 in the assay on MV4-11 cells and with MOLM-13 cells was 100 to 1000 nM throughout.

On to `COc1cc2c(cc1N)c(=O)n(C)c1cnc(Nc3ccc(OCCN4CCCC4)cc3)nc21` [Compound C42, 8-amino-9-methoxy-5-methyl-2-((4-(2-(pyrrolidin-1-yl)ethoxy)phenyl)amino) pyrimido[5,4-c]isoquinolin-6(5H)-one], for which the IC50 at JAK3, on JAK2 and on FLT3 wt was 100 to 1000 nM in each case. In addition, the EC50 in the assay with MV4-11 cells and with MOLM-13 cells was 100 to 1000 nM each time.
